# Laboratory results published in US10392391B2 (Vertex Pharmaceuticals Incorporated, priority 2012, dated 2019).
# Biological target: ATR kinase (full-length ATR) (Homo sapiens (Human), UniProt Q13535)
# Assay: ATR inhibition assay (radioactive-phosphate incorporation)
# Assay type: biochemical
# Settings: Ki(app), 5 nM full-length ATR, 10 μM ATP, 25° C.
# Procedure, shortened: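 Radiometric 33P incorporation by 5 nM full-length ATR into 800 μM target peptide with 10 μM [γ-33P]ATP, in 50 mM Tris/HCl pH 7.5, 10 mM MgCl2, 1 mM DTT, 7% DMSO, 25° C. Compound pre-incubated 10 minutes; reaction stopped after 24 hours, captured on phosphocellulose. Ki(app) from non-linear regression of initial rates.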
# Sequence of ATR kinase (full-length ATR) (Q13535 whole entry): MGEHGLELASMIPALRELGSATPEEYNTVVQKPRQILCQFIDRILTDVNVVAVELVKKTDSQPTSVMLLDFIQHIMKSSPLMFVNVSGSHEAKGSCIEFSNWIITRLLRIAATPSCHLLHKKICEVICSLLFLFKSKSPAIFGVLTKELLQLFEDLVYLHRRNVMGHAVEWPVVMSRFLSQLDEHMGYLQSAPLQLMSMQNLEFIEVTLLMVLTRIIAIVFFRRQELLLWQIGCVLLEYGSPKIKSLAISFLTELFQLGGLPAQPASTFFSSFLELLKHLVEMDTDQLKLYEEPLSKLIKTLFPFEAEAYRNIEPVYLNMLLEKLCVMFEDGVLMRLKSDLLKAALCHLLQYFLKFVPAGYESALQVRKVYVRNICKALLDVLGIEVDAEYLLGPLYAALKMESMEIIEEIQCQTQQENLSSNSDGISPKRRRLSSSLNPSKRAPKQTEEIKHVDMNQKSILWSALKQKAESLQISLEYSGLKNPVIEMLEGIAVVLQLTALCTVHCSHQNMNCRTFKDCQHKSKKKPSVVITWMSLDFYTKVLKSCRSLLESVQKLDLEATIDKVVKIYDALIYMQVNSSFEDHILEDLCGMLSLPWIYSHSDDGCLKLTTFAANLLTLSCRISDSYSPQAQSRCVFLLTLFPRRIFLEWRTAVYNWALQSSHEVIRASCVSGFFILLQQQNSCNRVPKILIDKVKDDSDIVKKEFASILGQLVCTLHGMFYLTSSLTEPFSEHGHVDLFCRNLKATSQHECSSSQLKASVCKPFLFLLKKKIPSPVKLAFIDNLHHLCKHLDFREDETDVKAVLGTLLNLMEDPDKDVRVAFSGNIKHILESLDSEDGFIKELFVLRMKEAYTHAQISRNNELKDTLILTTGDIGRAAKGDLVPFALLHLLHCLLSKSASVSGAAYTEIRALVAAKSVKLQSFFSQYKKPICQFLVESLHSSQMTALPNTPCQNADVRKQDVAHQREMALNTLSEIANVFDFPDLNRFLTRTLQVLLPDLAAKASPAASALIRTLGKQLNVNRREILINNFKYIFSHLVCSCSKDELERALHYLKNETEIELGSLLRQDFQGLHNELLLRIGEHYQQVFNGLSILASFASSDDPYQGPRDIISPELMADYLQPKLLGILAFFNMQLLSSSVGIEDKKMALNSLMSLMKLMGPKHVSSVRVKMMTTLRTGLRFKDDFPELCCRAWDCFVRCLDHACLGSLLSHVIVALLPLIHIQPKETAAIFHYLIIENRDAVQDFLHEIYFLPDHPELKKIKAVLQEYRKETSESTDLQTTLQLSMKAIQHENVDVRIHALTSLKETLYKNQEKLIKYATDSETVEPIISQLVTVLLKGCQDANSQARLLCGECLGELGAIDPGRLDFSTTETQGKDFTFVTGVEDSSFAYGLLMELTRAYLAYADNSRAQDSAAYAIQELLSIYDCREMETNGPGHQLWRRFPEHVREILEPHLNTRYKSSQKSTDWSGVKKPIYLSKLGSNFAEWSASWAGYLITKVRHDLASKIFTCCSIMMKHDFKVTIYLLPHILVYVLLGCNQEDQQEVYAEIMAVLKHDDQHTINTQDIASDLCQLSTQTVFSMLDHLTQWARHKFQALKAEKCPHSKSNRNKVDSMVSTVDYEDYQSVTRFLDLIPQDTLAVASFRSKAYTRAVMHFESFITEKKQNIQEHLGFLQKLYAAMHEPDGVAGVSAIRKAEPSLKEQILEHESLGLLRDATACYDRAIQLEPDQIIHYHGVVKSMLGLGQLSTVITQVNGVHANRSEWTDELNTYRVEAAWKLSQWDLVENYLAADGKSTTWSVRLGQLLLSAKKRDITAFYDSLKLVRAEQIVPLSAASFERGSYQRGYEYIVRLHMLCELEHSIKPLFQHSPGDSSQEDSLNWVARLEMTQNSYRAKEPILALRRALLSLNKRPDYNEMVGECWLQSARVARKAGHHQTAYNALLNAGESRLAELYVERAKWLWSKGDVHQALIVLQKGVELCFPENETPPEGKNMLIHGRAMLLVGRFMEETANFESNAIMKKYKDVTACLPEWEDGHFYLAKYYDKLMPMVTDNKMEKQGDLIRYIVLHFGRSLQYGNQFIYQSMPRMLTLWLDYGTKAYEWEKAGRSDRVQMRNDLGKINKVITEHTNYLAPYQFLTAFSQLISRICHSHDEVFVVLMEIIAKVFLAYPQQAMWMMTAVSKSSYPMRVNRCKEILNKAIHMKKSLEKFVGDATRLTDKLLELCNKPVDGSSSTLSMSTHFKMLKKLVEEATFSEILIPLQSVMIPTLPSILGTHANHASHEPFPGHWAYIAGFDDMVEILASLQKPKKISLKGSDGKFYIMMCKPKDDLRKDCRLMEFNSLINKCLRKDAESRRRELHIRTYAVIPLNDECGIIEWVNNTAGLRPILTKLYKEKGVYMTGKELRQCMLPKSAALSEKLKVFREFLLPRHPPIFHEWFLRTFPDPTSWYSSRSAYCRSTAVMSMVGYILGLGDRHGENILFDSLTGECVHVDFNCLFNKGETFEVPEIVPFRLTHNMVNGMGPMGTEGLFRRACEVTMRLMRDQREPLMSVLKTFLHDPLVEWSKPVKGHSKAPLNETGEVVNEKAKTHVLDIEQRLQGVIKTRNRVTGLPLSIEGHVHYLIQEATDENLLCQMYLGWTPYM
row,SMILES,Ki
1,"Nc1nn2cc(F)cnc2c1C(=O)Nc1cnccc1N1CCC2(CC1)COC2 [I-N-226, N-(4-(2-oxa-7-azaspiro[3.5]nonan-7-yl)pyridin-3-yl)-2-amino-6-fluoropyrazolo[1,5-a]pyrimidine-3-carboxamide]",0.01 to 1 µM
2,"Nc1nn2cc(F)cnc2c1C(=O)Nc1cnccc1N1CCC(N2CCCC2=O)CC1 [I-N-230, 2-amino-6-fluoro-N-(4-(4-(2-oxopyrrolidin-1-yl)piperidin-1-yl)pyridin-3-yl)pyrazolo[1,5-a]pyrimidine-3-carboxamide]",0.01 to 1 µM
3,"Nc1nn2cc(F)cnc2c1C(=O)Nc1cncc(F)c1N1CC(=O)N2CCCC2C1 (stereo not shown) [I-N-232, 2-amino-6-fluoro-N-(5-fluoro-4-(4-oxohexahydropyrrolo[1,2-a]pyrazin-2(1H)-yl)pyridin-3-yl)pyrazolo[1,5-a]pyrimidine-3-carboxamide]",0.01 to 1 µM
4,"CN(C)C(=O)C1CN(c2ccncc2NC(=O)c2c(N)nn3cc(F)cnc23)CCO1 (stereo not shown) [I-N-234, 4-(3-(2-amino-6-fluoropyrazolo[1,5-a]pyrimidine-3-carboxamido)pyridin-4-yl)-N,N-dimethylmorpholine-2-carboxamide]",0.01 to 1 µM
5,"CN1C(=O)CCC12CCN(c1ccncc1NC(=O)c1c(N)nn3cc(F)cnc13)CC2 [I-N-235, 2-amino-6-fluoro-N-(4-(1-methyl-2-oxo-1,8-diazaspiro[4.5]decan-8-yl)pyridin-3-yl)pyrazolo[1,5-a]pyrimidine-3-carboxamide]",0.01 to 1 µM
6,"CN1CC2(CCN(c3ccncc3NC(=O)c3c(N)nn4cc(F)cnc34)CC2)CC1=O [I-N-236, 2-amino-6-fluoro-N-(4-(2-methyl-3-oxo-2,8-diazaspiro[4.5]decan-8-yl)pyridin-3-yl)pyrazolo[1,5-a]pyrimidine-3-carboxamide]",0.01 to 1 µM
7,Cc1cncc(NC(=O)c2c(N)nn3cc(F)cnc23)c1-n1nccc1C [I-N-237],0.01 to 1 µM
8,"Nc1nn2cc(F)cnc2c1C(=O)Nc1cnccc1N1CCN2C(=O)OCC2C1 (stereo not shown) [I-N-238, 2-amino-6-fluoro-N-(4-(3-oxotetrahydro-1H-oxazolo[3,4-a]pyrazin-7(3H)-yl)pyridin-3-yl)pyrazolo[1,5-a]pyrimidine-3-carboxamide]",0.01 to 1 µM
9,"Nc1nn2cc(F)cnc2c1C(=O)Nc1cncc(F)c1N1CCC2(CC1)COC2 [I-N-239, 2-amino-6-fluoro-N-(5-fluoro-4-(2-oxa-7-azaspiro[3.5]nonan-7-yl)pyridin-3-yl)pyrazolo[1,5-a]pyrimidine-3-carboxamide]",0.01 to 1 µM
10,"CC1(S(C)(=O)=O)CCN(c2ccncc2NC(=O)c2c(N)nn3cc(F)cnc23)CC1 [I-N-243, 2-amino-6-fluoro-N-(4-(4-methyl-4-(methylsulfonyl)piperidin-1-yl)pyridin-3-yl)pyrazolo[1,5-a]pyrimidine-3-carboxamide]",0.01 to 1 µM
11,"Nc1nn2cc(F)cnc2c1C(=O)Nc1cncc(F)c1N1CCN2C(=O)OC[C@@H]2C1 [I-N-248, (S)-2-amino-6-fluoro-N-(5-fluoro-4-(3-oxotetrahydro-1H-oxazolo[3,4-a]pyrazin-7(3H)-yl)pyridin-3-yl)pyrazolo[1,5-a]pyrimidine-3-carboxamide]",0.01 to 1 µM
12,"CC1(C)CN(c2ccncc2NC(=O)c2c(N)nn3cc(F)cnc23)CCS1(=O)=O [I-N-252, 2-amino-N-(4-(2,2-dimethyl-1,1-dioxidothiomorpholino)pyridin-3-yl)-6-fluoropyrazolo[1,5-a]pyrimidine-3-carboxamide]",0.01 to 1 µM
13,"Nc1nn2cc(F)cnc2c1C(=O)Nc1cnccc1N1CCC2(CCNC2)CC1 [I-N-255, N-(4-(2,8-diazaspiro[4.5]decan-8-yl)pyridin-3-yl)-2-amino-6-fluoropyrazolo[1,5-a]pyrimidine-3-carboxamide]",0.01 to 1 µM
14,"Cc1nnc(N2CCN(c3ccncc3NC(=O)c3c(N)nn4cc(F)cnc34)CC2)o1 [I-N-256, 2-amino-6-fluoro-N-(4-(4-(5-methyl-1,3,4-oxadiazol-2-yl)piperazin-1-yl)pyridin-3-yl)pyrazolo[1,5-a]pyrimidine-3-carboxamide]",0.01 to 1 µM
15,"CC(=O)N1CCC2(CCN(c3ccncc3NC(=O)c3c(N)nn4cc(F)cnc34)CC2)C1 [I-N-257, N-(4-(2-acetyl-2,8-diazaspiro[4.5]decan-8-yl)pyridin-3-yl)-2-amino-6-fluoropyrazolo[1,5-a]pyrimidine-3-carboxamide]",0.01 to 1 µM

# The next lines start with the values.
row,Ki,SMILES
1,0.01 to 1 µM,"Nc1nn2cc(F)cnc2c1C(=O)Nc1cnccc1N1CC(=O)N2CCCC2C1 (stereo not shown) [I-N-222, 2-amino-6-fluoro-N-(4-(4-oxohexahydropyrrolo[1,2-a]pyrazin-2(1H)-yl)pyridin-3-yl)pyrazolo[1,5-a]pyrimidine-3-carboxamide]"
2,0.01 to 1 µM,"Cc1ccnn1-c1ccncc1NC(=O)c1c(N)nn2cc(F)cnc12 [I-N-223, 2-amino-6-fluoro-N-(4-(5-methyl-1H-pyrazol-1-yl)pyridin-3-yl)pyrazolo[1,5-a]pyrimidine-3-carboxamide]"
3,0.01 to 1 µM,"CN1C[C@@H]2CCN(c3ccncc3NC(=O)c3c(N)nn4cc(F)cnc34)C[C@@H]2C1=O [I-N-224, 2-amino-6-fluoro-N-(4-((3aR,7aR)-2-methyl-3-oxohexahydro-1H-pyrrolo[3,4-c]pyridin-5(6H)-yl)pyridin-3-yl)pyrazolo[1,5-a]pyrimidine-3-carboxamide]"
4,0.01 to 1 µM,"Cc1ccn(-c2ccncc2NC(=O)c2c(N)nn3cc(F)cnc23)n1 [I-N-225, 2-amino-6-fluoro-N-(4-(3-methyl-1H-pyrazol-1-yl)pyridin-3-yl)pyrazolo[1,5-a]pyrimidine-3-carboxamide]"
5,0.01 to 1 µM,"CN1CCOCC1C(=O)N1CCN(c2c(F)cncc2NC(=O)c2c(N)nn3cc(F)cnc23)CC1 (stereo not shown) [I-N-227, 2-amino-6-fluoro-N-(5-fluoro-4-(4-(4-methylmorpholine-3-carbonyl)piperazin-1-yl)pyridin-3-yl)pyrazolo[1,5-a]pyrimidine-3-carboxamide]"
6,0.01 to 1 µM,"Nc1nn2cc(F)cnc2c1C(=O)Nc1cncc(F)c1N1CCN(CC(=O)N2CCC2)CC1 [I-N-228, 2-amino-N-(4-(4-(2-(azetidin-1-yl)-2-oxoethyl)piperazin-1-yl)-5-fluoropyridin-3-yl)-6-fluoropyrazolo[1,5-a]pyrimidine-3-carboxamide]"
7,0.01 to 1 µM,"CN1CC2(CCN(c3c(F)cncc3NC(=O)c3c(N)nn4cc(F)cnc34)CC2)OC1=O [I-N-229, 2-amino-6-fluoro-N-(5-fluoro-4-(3-methyl-2-oxo-1-oxa-3,8-diazaspiro[4.5]decan-8-yl)pyridin-3-yl)pyrazolo[1,5-a]pyrimidine-3-carboxamide]"
8,0.01 to 1 µM,"CN1CC2(CCC1=O)CCN(c1ccncc1NC(=O)c1c(N)nn3cc(F)cnc13)CC2 [I-N-231, 2-amino-6-fluoro-N-(4-(2-methyl-3-oxo-2,9-diazaspiro[5.5]undecan-9-yl)pyridin-3-yl)pyrazolo[1,5-a]pyrimidine-3-carboxamide]"
9,0.01 to 1 µM,"CN1CCN2CCN(c3ccncc3NC(=O)c3c(N)nn4cc(F)cnc34)CC2C1=O (stereo not shown) [I-N-233, 2-amino-6-fluoro-N-(4-(8-methyl-9-oxohexahydro-1H-pyrazino[1,2-a]pyrazin-2(6H)-yl)pyridin-3-yl)pyrazolo[1,5-a]pyrimidine-3-carboxamide]"
10,0.01 to 1 µM,"CN1CCN2CCN(c3c(F)cncc3NC(=O)c3c(N)nn4cc(F)cnc34)CC2C1=O (stereo not shown) [I-N-240, 2-amino-6-fluoro-N-(5-fluoro-4-(8-methyl-9-oxohexahydro-1H-pyrazino[1,2-a]pyrazin-2(6H)-yl)pyridin-3-yl)pyrazolo[1,5-a]pyrimidine-3-carboxamide]"
11,0.01 to 1 µM,"Nc1nn2cc(F)cnc2c1C(=O)Nc1cnccc1N1CCC(c2ncon2)CC1 [I-N-241, N-(4-(4-(1,2,4-oxadiazol-3-yl)piperidin-1-yl)pyridin-3-yl)-2-amino-6-fluoropyrazolo[1,5-a]pyrimidine-3-carboxamide]"
12,0.01 to 1 µM,"Nc1nn2cc(F)cnc2c1C(=O)Nc1cnccc1N1CCN2C(=O)CCCC2C1 (stereo not shown) [I-N-244, 2-amino-6-fluoro-N-(4-(6-oxohexahydro-1H-pyrido[1,2-a]pyrazin-2(6H)-yl)pyridin-3-yl)pyrazolo[1,5-a]pyrimidine-3-carboxamide]"
13,0.01 to 1 µM,"Nc1nn2cc(F)cnc2c1C(=O)Nc1cncc(F)c1N1CCCC1 [I-N-246, 2-amino-6-fluoro-N-(5-fluoro-4-(pyrrolidin-1-yl)pyridin-3-yl)pyrazolo[1,5-a]pyrimidine-3-carboxamide]"
14,0.01 to 1 µM,"Nc1nn2cc(F)cnc2c1C(=O)Nc1cnccc1N1CCN2[C@@H](CCS2(=O)=O)C1 [I-N-247, (S)-2-amino-N-(4-(1,1-dioxidotetrahydro-2H-isothiazolo[2,3-a]pyrazin-5(3H)-yl)pyridin-3-yl)-6-fluoropyrazolo[1,5-a]pyrimidine-3-carboxamide]"
15,0.01 to 1 µM,Nc1nn2cc(F)cnc2c1C(=O)Nc1cnccc1N1CCN(C(=O)C2COC2)CC1 [I-N-249]
16,0.01 to 1 µM,"Nc1nn2cc(F)cnc2c1C(=O)Nc1cncc(F)c1N1CCS(=O)(=O)CC1 [I-N-250, 2-amino-N-(4-(1,1-dioxidothiomorpholino)-5-fluoropyridin-3-yl)-6-fluoropyrazolo[1,5-a]pyrimidine-3-carboxamide]"
17,0.01 to 1 µM,"CC(=O)N1CC2(CCN(c3ccncc3NC(=O)c3c(N)nn4cc(F)cnc34)CC2)C1 [I-N-251, N-(4-(2-acetyl-2,7-diazaspiro[3.5]nonan-7-yl)pyridin-3-yl)-2-amino-6-fluoropyrazolo[1,5-a]pyrimidine-3-carboxamide]"
18,0.01 to 1 µM,"Nc1nn2cc(F)cnc2c1C(=O)Nc1cnccc1N1CCCC2(COC2)C1 [I-N-253, N-(4-(2-oxa-6-azaspiro[3.5]nonan-6-yl)pyridin-3-yl)-2-amino-6-fluoropyrazolo[1,5-a]pyrimidine-3-carboxamide]"
19,0.01 to 1 µM,"Nc1nn2cc(F)cnc2c1C(=O)Nc1cnccc1N1CCN2C(=O)CC[C@@H]2C1 [I-N-258, (R)-2-amino-6-fluoro-N-(4-(6-oxohexahydropyrrolo[1,2-a]pyrazin-2(1H)-yl)pyridin-3-yl)pyrazolo[1,5-a]pyrimidine-3-carboxamide]"
